Experimental data as given in PMC8436214 (Journal of Medicinal Chemistry, 2021).
Entries after “also recorded” stand apart in the source; their conditions may differ.

Legend:
[1] = test system: T24 human bladder cancer cell line; experiment: MTT cell proliferation/viability assay; type: cell-based
Human recombinant PNMT = molecular target: T1, Human recombinant PNMT (Homo sapiens, UniProt P11086); experiment: PNMT selectivity assay; type: biochemical
T1 sequence (P11086 1-282): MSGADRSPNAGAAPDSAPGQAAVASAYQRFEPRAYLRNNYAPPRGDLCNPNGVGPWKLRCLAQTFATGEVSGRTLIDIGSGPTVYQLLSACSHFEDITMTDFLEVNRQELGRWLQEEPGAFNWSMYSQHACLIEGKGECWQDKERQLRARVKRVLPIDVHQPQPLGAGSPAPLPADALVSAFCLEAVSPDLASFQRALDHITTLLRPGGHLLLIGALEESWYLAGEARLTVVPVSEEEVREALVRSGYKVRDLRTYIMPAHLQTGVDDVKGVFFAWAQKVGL

SMYD2 = SMYD2 (Homo sapiens, UniProt Q9NRG4); experiment: Methyltransferase selectivity assay; type: biochemical
DOT1L = DOT1L (Homo sapiens, UniProt Q8TEK3); experiment: Methyltransferase selectivity assay; type: biochemical
PRMT5 = PRMT5 (Homo sapiens, UniProt O14744); experiment: Methyltransferase selectivity assay; type: biochemical
PRMT4/CARM1 = molecular target: T2, PRMT4/CARM1 (Homo sapiens, UniProt Q86X55); experiment: PRMT4/CARM1 methyltransferase inhibition assay; type: biochemical; settings: 3.7, 11.1, 33.3, and 100 μM
T2 sequence (Q86X55 1-608): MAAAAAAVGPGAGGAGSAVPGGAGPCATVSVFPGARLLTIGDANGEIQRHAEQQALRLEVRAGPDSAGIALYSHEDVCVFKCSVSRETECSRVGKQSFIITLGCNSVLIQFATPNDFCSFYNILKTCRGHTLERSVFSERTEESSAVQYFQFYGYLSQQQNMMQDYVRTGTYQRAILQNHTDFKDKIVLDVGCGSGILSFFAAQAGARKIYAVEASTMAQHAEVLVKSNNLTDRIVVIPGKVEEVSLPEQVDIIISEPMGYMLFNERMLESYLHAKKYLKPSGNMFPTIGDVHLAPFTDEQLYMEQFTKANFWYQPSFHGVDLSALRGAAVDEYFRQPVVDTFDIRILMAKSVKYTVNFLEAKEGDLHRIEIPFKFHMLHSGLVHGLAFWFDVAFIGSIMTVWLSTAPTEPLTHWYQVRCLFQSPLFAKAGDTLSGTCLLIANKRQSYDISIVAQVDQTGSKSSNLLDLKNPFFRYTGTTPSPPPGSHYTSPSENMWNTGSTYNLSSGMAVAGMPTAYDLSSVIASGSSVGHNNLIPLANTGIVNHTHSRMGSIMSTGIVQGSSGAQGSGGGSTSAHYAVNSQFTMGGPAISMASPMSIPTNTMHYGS

[2] = test system: HSC-2 human oral cancer cell line; experiment: MTT cell proliferation/viability assay; type: cell-based
[3] = Parallel artificial membrane permeability assay; type: in vitro ADME; settings: PAMPA
[4] = test system: A549 human lung cancer line; experiment: MTT cell proliferation/viability assay; type: cell-based
[5] = lower concentrations tested (from 1 μM)

Chain of SMYD2 (Q9NRG4 whole entry, species assumed): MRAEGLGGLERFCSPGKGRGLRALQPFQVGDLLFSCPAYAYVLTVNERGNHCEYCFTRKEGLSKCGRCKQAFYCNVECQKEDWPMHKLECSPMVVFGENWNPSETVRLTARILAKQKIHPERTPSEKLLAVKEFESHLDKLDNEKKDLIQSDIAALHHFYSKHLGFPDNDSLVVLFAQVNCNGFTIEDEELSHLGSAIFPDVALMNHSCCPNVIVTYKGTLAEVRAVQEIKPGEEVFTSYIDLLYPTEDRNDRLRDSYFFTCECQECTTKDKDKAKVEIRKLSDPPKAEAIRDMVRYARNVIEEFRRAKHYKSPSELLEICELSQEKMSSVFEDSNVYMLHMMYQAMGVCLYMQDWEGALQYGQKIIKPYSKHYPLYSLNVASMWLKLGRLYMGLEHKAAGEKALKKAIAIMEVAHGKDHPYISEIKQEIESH
Chain of PRMT5 (O14744 whole entry, species assumed): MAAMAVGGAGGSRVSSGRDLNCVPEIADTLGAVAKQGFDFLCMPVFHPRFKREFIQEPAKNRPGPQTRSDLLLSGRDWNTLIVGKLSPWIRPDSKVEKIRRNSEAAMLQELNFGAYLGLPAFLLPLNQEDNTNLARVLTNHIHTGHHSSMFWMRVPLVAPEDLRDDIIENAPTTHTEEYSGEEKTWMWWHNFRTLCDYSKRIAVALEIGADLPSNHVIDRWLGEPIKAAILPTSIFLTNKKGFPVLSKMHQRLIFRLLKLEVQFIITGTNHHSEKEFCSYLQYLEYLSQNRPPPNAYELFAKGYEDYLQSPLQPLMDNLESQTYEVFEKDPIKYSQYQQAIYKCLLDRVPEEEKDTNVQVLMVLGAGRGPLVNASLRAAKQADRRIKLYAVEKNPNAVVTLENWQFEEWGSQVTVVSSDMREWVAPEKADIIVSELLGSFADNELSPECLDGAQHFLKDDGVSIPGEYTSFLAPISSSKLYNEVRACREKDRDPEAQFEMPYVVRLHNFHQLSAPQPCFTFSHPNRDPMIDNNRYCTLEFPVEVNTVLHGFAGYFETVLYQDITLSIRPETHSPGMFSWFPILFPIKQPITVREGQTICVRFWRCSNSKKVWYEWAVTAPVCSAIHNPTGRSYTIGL
Chain of PRMT5 (Q9BQA1 whole entry partner, species assumed): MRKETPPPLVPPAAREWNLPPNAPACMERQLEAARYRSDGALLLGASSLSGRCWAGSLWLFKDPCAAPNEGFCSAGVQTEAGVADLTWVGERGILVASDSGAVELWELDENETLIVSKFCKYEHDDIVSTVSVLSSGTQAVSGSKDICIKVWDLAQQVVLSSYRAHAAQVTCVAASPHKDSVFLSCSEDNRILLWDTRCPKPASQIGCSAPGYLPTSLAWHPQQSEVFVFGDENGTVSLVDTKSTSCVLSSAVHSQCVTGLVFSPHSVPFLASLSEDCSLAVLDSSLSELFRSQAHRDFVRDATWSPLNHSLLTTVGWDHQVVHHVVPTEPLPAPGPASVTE
Chain of DOT1L (Q8TEK3 whole entry, species assumed): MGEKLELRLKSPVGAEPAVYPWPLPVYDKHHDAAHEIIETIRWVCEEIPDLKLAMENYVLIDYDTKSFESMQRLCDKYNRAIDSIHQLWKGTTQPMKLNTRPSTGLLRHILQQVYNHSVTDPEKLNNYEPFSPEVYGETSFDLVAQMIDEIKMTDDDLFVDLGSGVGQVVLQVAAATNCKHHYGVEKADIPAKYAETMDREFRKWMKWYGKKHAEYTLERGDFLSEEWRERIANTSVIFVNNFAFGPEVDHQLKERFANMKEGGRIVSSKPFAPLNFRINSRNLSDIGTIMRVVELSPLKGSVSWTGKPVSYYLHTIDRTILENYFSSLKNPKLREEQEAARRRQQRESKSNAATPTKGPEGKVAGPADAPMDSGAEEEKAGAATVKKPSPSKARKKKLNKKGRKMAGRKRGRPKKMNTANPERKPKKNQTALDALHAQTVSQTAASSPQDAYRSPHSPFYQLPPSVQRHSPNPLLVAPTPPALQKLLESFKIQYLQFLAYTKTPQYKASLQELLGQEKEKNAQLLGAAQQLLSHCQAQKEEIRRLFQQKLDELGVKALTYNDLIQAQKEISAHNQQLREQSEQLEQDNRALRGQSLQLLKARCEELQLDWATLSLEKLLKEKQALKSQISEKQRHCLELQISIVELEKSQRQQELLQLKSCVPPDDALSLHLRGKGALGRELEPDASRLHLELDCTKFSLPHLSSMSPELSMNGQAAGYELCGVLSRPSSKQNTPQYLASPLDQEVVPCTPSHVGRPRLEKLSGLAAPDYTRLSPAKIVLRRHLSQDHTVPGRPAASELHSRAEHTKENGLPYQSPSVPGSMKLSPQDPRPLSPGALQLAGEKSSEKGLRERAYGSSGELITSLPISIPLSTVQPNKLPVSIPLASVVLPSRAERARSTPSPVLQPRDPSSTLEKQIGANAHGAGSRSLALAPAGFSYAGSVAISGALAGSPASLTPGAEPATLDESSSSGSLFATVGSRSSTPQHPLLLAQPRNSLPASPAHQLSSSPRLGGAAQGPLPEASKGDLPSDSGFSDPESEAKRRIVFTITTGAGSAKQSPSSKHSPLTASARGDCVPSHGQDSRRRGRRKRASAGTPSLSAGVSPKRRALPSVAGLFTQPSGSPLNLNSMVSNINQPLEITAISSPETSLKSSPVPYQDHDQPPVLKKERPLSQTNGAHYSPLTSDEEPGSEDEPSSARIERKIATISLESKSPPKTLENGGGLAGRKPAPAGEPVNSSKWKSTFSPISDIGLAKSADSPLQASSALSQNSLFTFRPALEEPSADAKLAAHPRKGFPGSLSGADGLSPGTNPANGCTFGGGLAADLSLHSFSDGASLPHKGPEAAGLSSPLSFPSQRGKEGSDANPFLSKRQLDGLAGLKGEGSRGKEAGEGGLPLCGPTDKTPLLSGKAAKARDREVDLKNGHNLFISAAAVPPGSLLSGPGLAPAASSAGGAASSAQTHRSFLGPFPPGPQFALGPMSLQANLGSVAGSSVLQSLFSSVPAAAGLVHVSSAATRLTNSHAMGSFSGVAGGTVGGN

**Q.** With `N#Cc1ccc(/C=C/CN(CC[C@H](N)C(=O)O)C[C@H]2O[C@@H](n3cnc4c(N)ncnc43)[C@H](O)[C@@H]2O)cc1` [Compound 17u, (S)-2-Amino-4-((((2R,3S,4R,5R)-5-(6-amino-9H-purin-9-yl)-3,4-dihydroxytetrahydrofuran-2-yl)methyl)((E)-3-(4-cyanophenyl)allyl)amino)butanoic Acid] as the compound, how does the “effect on cell viability, T24” value ([1]; 100 μM, MTT, 24, 48 and 72 h) read?
**A.** clear inhibition of the cell viability; also recorded: significant decrease in cell viability

**Q.** And the “effect on cell viability, T24” value [1, 5]?
**A.** absent

**Q.** What about the “PNMT inhibition at the concentrations tested” value (Human recombinant PNMT; 1 and 10 μM) of the same compound?
**A.** less than 50%

**Q.** And the “inhibitory activity against PNMT lower than against NNMT” value (Human recombinant PNMT; selectivity NNMT over PNMT)?
**A.** more than 3000 fold

**Q.** What about the activity at 1 µM (SMYD2; read-out: SMYD2 Average Activity (%) 1µM) of the same compound?
**A.** 39%

**Q.** What about the activity at 10 µM (SMYD2; read-out: SMYD2 Average Activity (%) 10µM) of the same compound?
**A.** 19%

**Q.** And the “higher potency toward NNMT (than SMYD-2)” value (SMYD2; selectivity NNMT over SMYD-2)?
**A.** > 100 fold

**Q.** What about the “DOT1L activity of the compound (in words)” value (DOT1L; 1 μM) of the same compound?
**A.** no appreciable activity

**Q.** And the inhibition at 10 µM (DOT1L; read-out: DOT1L inhibition)?
**A.** > 50%

**Q.** And the “PRMT5 activity of the compound (in words)” value (PRMT5; 1 μM)?
**A.** no appreciable activity

**Q.** And the inhibition at 10 µM (PRMT5; read-out: PRMT5 inhibition)?
**A.** > 50%

**Q.** What about the “PRMT4/CARM1 inhibition at the concentrations tested” value (PRMT4/CARM1) of the same compound?
**A.** no inhibition was observed

**Q.** And the “effect on cell viability, HSC-2” value ([2]; 100 μM, MTT, 24, 48 and 72 h)?
**A.** clear inhibition of the cell viability; also recorded: significant decrease in cell viability

**Q.** And the “effect on cell viability, HSC-2” value [2, 5]?
**A.** absent

**Q.** What about the “cell permeability (in words)” value [3] of the same compound?
**A.** very poor cell permeability; also recorded: poor cell permeability

**Q.** What about the “effect on cell viability, A549” value ([4]; 100 μM, MTT, 24, 48 and 72 h) of the same compound?
**A.** clear inhibition of the cell viability; also recorded: significant decrease in cell viability

**Q.** What about the “effect on cell viability, A549” value [4, 5] of the same compound?
**A.** absent
